From patent US9056110B2, “Substituted pyrimidinone-phenyl-pyrimidinyl compounds” (Confluence Life Sciences, Inc., priority 2011, dated 2015)
pIC50: −log10 of the molar value.

Experiments:
[1] = target: p38α/MK2 (Homo sapiens, UniProt Q16539); assay: p38α/MK2 cascade assay (IMAP, Hsp27 peptide phosphorylation); format: biochemical; settings: for pIC50: p38α/MK2 cascade, Hsp27 peptide 1 μM, MgATP 10 μM, 120 minutes, read-out: p38/MK2 IC50; for Selectivity Ratio: ratio of p38α/PRAK:p38α/MK2 IC50 values
Method: (§1) P38 inhibitory potency and P38/MK2 substrate selectivity: The novel, MK2 substrate-selective inhibitory mechanism of compounds is evaluated in enzyme assays that compare inhibitor potency in blocking p38/MK2 versus p38/PRAK induced phosphorylation of an HSP-27 derived peptide substrate. The ability of compounds to inhibit activated phospho-p38α is evaluated using a p38α/MK2 and a p38α/PRAK cascade assay format. The kinase activity of p38α is determined by its ability to phosphorylate and activate GST-MK2 or GST-PRAK. The kinase activity of activated MK2 and PRAK is followed by measuring the phosphorylation of a fluorescently-labeled, peptide substrate based on the sequence of Hsp27 (FITC-KKKALSRQLSVAA). The phosphorylation of the Hsp27 peptide is quantified using IMAP assay technology (Molecular Devices) and the Analyst HT plate reader (LJL Biosystems). Kinase reactions are carried out in a 384-well plate (Corning 3575) in 20 mM HEPES pH 7.5, 10 mM MgCl2, 0.0005% Tween-20, 0.01% BSA, 1 mM DTT, and 2% DMSO. The inhibitor concentration varies between 0.5-30,000 nM, while the Hsp27 peptide substrate and MgATP are held constant at 1 μM and 10 μM, respectively. Activated p38α is added to a final concentration of 20 pM for reactions with 1 nM nonphosphorylated 1 nM GST-MK2. For the p38α/PRAK cascade, unactivated GST-PRAK is held constant at 10 nM while p38α is added to a final concentration of […]. Kinase reactions are incubated at room temperature and quenched after 120 minutes by the addition of 1× Progressive Binding Buffer A containing 1×IMAP beads (IMAP FP Progressive Screening Express Kit, Molecular Devices Catalog Number R8127). Inhibitor potency is calculated by fitting dose-response data to the 4-parameter logistical IC50 equation. The substrate selectivity is calculated as a ratio of p38α/PRAK:p38α/MK2 IC50 values. A substrate selective inhibitor will have a p38α/PRAK:p38α/MK2 IC50 ratio of >2 while a classical p38 inhibitor will have a ratio of between 0.5-2. […] By way of example, the enhanced therapeutic benefit could be associated with a reduction in inhibition of p38 mediated anti-inflammatory functions, such as IL-10 production and TAB1 phosphorylation. An increased safety profile is expected based, for example, on a reduced inhibition of p38 substrates, such as PPARg and CDC25 phosphatase and PLA2 involved in gluconeogenesis and cell cycle regulation, respectively.

[2] = target: p38α/PRAK (Homo sapiens, UniProt Q16539); assay: p38α/PRAK cascade assay (IMAP, Hsp27 peptide phosphorylation); format: biochemical; settings: Hsp27 peptide 1 μM, MgATP 10 μM, 120 minutes, read-out: p38/PRAK IC50
Method: as §1

[3] = tested on: TNFα; assay: LPS stimulated TNFα production in human PBMCs (ELISA); format: cell-based; settings: PBMC, LPS 0.1 μg/ml, 18-24 hours, read-out: PBMC Cell, TNFα IC50
Method: Evaluation of the potency and efficacy of p38 inhibitors to block cytokine production is carried out using the human U937 cell line and purified human PBMCs (peripheral blood mononuclear cells). The U937 human pre-monocytic cell line is obtained from the American Type Culture Collection (Rockville, Md.). These cells are differentiated to a monocytic/macrophage phenotype as described by Burnette (Burnette et al., (2009). SD0006: a potent, selective and orally available inhibitor of p38 kinase, Pharmacology 84(1):42-60). Differentiated U937 cells are seeded into 96-well tissue culture plates (200,000 cells/well) in complete media. After 24 hours, the cells are pretreated for 60 minutes in the presence or absence of compound and then stimulated with LPS (lipopolysaccharide) (0.1 μg/mL) for 4 hours. Culture media are then collected for determination of TNFα or IL-6 levels by ELISA. Human PBMCs are isolated from leukopacks as described by Burnette (Burnette et al., (2009), op. cit.). The cells are seeded into 96-well tissue culture plates (200,000 cells/well) in complete media. After a one hour recovery period at 37° C., 5% CO2, the cells are pretreated for 60 minutes in the presence or absence of compound and then stimulated with LPS (0.1 μg/ml) for 18-24 hours. Culture media are then collected for determination of TNFα and IL1β by ELISA. Cytokine concentrations are extrapolated from recombinant protein standard curves using a four-parameter logistic model and solving for IC50 after iterating to the best least-squares fit. p38 inhibitors will show a dose dependent inhibition of LPS stimulated TNFα, and IL6 in differentiated U937 cells and a dose dependent inhibition of LPS stimulated TNFα, IL6 and IL1b in human PBMCs. As drugs that down-regulate TNFα, IL6 and IL1b are efficacious in a number of autoimmune, autoinflammatory inflammatory, cardiovascular and oncological diseases, it would be expected that p38 drugs that inhibit these cytokines and other enzymes and mediators of disease will be effective drugs. Species compounds of Formula (I), described hereinabove, evaluated in this assay, are expected to provide a therapeutic benefit in the treatment of p38 kinase mediated diseases, including lymphoma and inflammation.

Sequence of p38α/MK2 (Q16539 whole entry): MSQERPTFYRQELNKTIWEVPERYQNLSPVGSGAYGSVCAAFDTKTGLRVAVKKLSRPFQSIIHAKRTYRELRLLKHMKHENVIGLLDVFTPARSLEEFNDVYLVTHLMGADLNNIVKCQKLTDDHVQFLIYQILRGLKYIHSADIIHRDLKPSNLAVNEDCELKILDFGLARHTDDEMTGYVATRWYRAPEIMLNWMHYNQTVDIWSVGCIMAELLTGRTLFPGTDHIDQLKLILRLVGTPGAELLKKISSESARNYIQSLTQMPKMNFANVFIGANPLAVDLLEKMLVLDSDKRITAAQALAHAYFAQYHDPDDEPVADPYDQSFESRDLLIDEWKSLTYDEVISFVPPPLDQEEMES
Sequence of p38α/MK2 (P49137 whole entry partner): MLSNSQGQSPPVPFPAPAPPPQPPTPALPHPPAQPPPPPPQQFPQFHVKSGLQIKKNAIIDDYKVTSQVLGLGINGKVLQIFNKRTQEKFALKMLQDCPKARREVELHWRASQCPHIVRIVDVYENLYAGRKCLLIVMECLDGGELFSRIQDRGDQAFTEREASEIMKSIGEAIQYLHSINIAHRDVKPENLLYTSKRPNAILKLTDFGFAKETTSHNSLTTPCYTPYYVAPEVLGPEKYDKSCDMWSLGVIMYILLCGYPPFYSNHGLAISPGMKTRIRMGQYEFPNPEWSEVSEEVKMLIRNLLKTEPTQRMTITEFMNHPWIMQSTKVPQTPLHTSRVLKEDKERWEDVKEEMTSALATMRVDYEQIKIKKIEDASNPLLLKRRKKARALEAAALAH
Sequence of p38α/PRAK (Q16539 whole entry): as the sequence (Q16539 whole entry) above

Row | Compound | pIC50 [1] | Selectivity Ratio [1] | pIC50 [2] | pIC50 [3]
1 | Cc1cccc(COc2nc(C)n(-c3cc(-c4ccnc(C(C)(C)O)n4)ccc3C)c(=O)c2Cl)c1 [Example 5, 5-chloro-3-(5-(2-(2-hydroxypropan-2-yl)pyrimidin-4-yl)-2-methylphenyl)-2-methyl-6-((3-methylbenzyl)oxy)pyrimidin-4(3H)-one] | 7.41 | 14.9 | 6.24 | 7.40
2 | Cc1ccc(-c2ccnc(C(C)(C)O)n2)cc1-n1c(C)nc(OCc2ccc(F)cc2)c(Cl)c1=O [Example 3, 5-chloro-6-((4-fluorobenzyl)oxy)-3-(5-(2-(2-hydroxypropan-2-yl)pyrimidin-4-yl)-2-methylphenyl)-2-methylpyrimidin-4(3H)-one] | 7.29 | 10.1 | 6.29 | 7.27
3 | Cc1ccc(-c2ccnc(C(C)(C)O)n2)cc1-n1c(C)nc(OCc2ncc(F)cc2F)c(Cl)c1=O [Example 20, (+)-5-chloro-6-((3,5-difluoropyridin-2-yl)methoxy)-3-(5-(2-(2-hydroxypropan-2-yl)pyrimidin-4-yl)-2-methylphenyl)-2-methylpyrimidin-4(3H)-one] | 5.27 | 2.82 | 4.82 | 
4 | Cc1cc(COc2nc(C)n(-c3cc(-c4ccnc(C(C)(C)O)n4)ccc3C)c(=O)c2Cl)c(F)cc1F [Example 23, 5-chloro-6-((2,4-difluoro-5-methylbenzyl)oxy)-3-(5-(2-(2-hydroxypropan-2-yl)pyrimidin-4-yl)-2-methylphenyl)-2-methylpyrimidin-4(3H)-one] | 7.36 | 11.7 | 6.29 | 7.13
5 | Cc1ccc(-c2ccnc(C(C)(C)O)n2)cc1-n1c(C)nc(OCc2ncc(F)cc2F)c(Cl)c1=O (racemic) [Example 19, 5-chloro-6-((3,5-difluoropyridin-2-yl)methoxy)-3-(5-(2-(2-hydroxypropan-2-yl)pyrimidin-4-yl)-2-methylphenyl)-2-methylpyrimidin-4(3H)-one] | 7.40 | 14.1 | 6.25 | 6.98
6 | Cc1ccc(-c2ccnc(C(C)(C)O)n2)cc1-n1c(C)nc(OCc2ccc(F)c(C)c2F)c(Cl)c1=O [Example 22, 5-chloro-6-(2,4-difluoro-3-methyl-benzyloxy)-3-{5-[2-(1-hydroxy-1-methyl-ethyl)-pyrimidin-4-yl]-2-methyl-phenyl}-2-methyl-3H-pyrimidin-4-one] | 6.41 | 15.1 | 5.24 | 6.67
7 | Cc1ccc(-c2ccnc(C(C)(C)O)n2)cc1-n1c(C)nc(OCc2cccc(F)n2)c(Cl)c1=O [Example 18, 5-chloro-6-((6-fluoropyridin-2-yl)methoxy)-3-(5-(2-(2-hydroxypropan-2-yl)pyrimidin-4-yl)-2-methylphenyl)-2-methylpyrimidin-4(3H)-one] | 6.24 | 13.3 | 5.11 | 6.20
8 | Cc1cccc(COc2nc(C)n(-c3cc(-c4ccnc(C(C)(C)O)n4)ccc3C)c(=O)c2Cl)n1 (single isomer, unassigned) [Example 16, (+)-5-chloro-3-(5-(2-(2-hydroxypropan-2-yl)pyrimidin-4-yl)-2-methylphenyl)-2-methyl-6-((6-methylpyridin-2-yl)methoxy)pyrimidin-4(3H)-one] | 5.30 | >6.0 |  | 5.45
9 | COc1cccc(COc2nc(C)n(-c3cc(-c4ccnc(C(C)(C)C)n4)ccc3C)c(=O)c2Cl)c1 [Example 6, 3-[5-(2-tert-butyl-pyrimidin-4-yl)-2-methyl-phenyl]-5-chloro-6-(3-methoxy-benzyloxy) -2-methyl-3H-pyrimidin-4-one] | 5.72 | 6.1 | 4.94 | 6.57
10 | Cc1nc(COc2nc(C)n(-c3cc(-c4ccnc(C(C)(C)O)n4)ccc3C)c(=O)c2Cl)co1 [Example 9, (−)-5-chloro-3-(5-(2-(2-hydroxypropan-2-yl)pyrimidin-4-yl)-2-methylphenyl)-2-methyl-6-((2-methyloxazol-4-yl)methoxy)pyrimidin-4(3H)-one] | 6.90 | 10.6 | 5.88 | 6.56
11 | Cc1cccc(COc2nc(C)n(-c3cc(-c4ccnc(C(C)(C)O)n4)ccc3C)c(=O)c2Cl)n1 [Example 15, (−)-5-chloro-3-(5-(2-(2-hydroxypropan-2-yl)pyrimidin-4-yl)-2-methylphenyl)-2-methyl-6-((6-methylpyridin-2-yl)methoxy)pyrimidin-4(3H)-one] | 7.28 | 23.6 | 5.91 | 7.15
12 | Cc1nc(COc2nc(C)n(-c3cc(-c4ccnc(C(C)(C)O)n4)ccc3C)c(=O)c2Cl)cs1 [Example 12, 5-chloro-3-(5-(2-(2-hydroxypropan-2-yl)pyrimidin-4-yl)-2-methylphenyl)-2-methyl-6-((2-methylthiazol-4-yl)methoxy)pyrimidin-4(3H)-one] | 7.12 | 17.9 | 5.87 | 6.93
13 | Cc1nc(COc2nc(C)n(-c3cc(-c4ccnc(C(C)(C)O)n4)ccc3C)c(=O)c2Br)cs1 [Example 11, 5-bromo-3-(5-(2-(2-hydroxypropan-2-yl)pyrimidin-4-yl)-2-methylphenyl)-2-methyl-6-((2-methylthiazol-4-yl)methoxy)pyrimidin-4(3H)-one] | 7.21 | 10.9 | 6.17 | 6.90
14 | Cc1cccc(COc2nc(C)n(-c3cc(-c4ccnc(C(C)(C)C)n4)ccc3C)c(=O)c2Cl)c1 [Example 4, 3-(5-(2-(tert-butyl)pyrimidin-4-yl)-2-methylphenyl)-5-chloro-2-methyl-6-((3-methylbenzyl)oxy)pyrimidin-4(3H)-one] | 5.99 | 12.6 | 4.89 | 7.00
15 | Cc1nc(COc2nc(C)n(-c3cc(-c4ccnc(C(C)(C)O)n4)ccc3C)c(=O)c2Cl)co1 (single isomer, unassigned) [Example 10, (+)-5-chloro-3-(5-(2-(2-hydroxypropan-2-yl)pyrimidin-4-yl)-2-methylphenyl)-2-methyl-6-((2-methyloxazol-4-yl)methoxy)pyrimidin-4(3H)-one] | 4.72 | >1.56 |  | 
